These results are taken from US20060014826A1, “Dioxocyclohexane carboxylic acid phenyl amide derivatives for modulating voltage-gated potassium channels and pharmaceutical compositions containing the same” (Wyeth, priority 2004, published 2006).

Molecules are shown by their SMILES.

Data set [1] concerns mouse 4-Plate model (punished crossings). The data set is described as follows: Anxiolytic activity, mouse 4-Plate model. Format: in vivo, male Swiss Webster mice. Here is the method:
Anxiolytic activity of the compounds of this invention was determined using the mouse 4-Plate model, originally described by Boissier et al. (Eur. J. Pharmacol. (1968) 4:145-151). The test procedure used is described in further detail below. Anxiolytic efficacy is measured as the ability of the test compound to increase the number of times that an animal will accept a mild punishment (in the form of a foot shock) in order to explore its environment. A number of clinically effective treatments for anxiety from multiple pharmacological classes are effective in this model (Hascoet et al., Pharmacol. Biochem. Beh. (2000) 65:339-344).
The compound of Example 8 was examined in the 4-Plate model.
Experimental Protocol for the 4-Plate Model
The “four-plate” apparatus consisted of a Plexiglas cage (18×25×16 cm) floored by four identical rectangular metal plates (8×11 cm) separated from one another by a gap of 4 mm. The plates were connected to a device that generated electric shocks (0.8 mA, 0.5 sec). […] Test animals (male Swiss Webster mice) were group housed with ad-lib access to food and water. Compounds were administered at the appropriate dose ip. 30 min prior to testing. Control animals were given the vehicle without drug. Animals were then placed in the 4-plate apparatus and allowed to habituate for 18 seconds. Following the 18-sec habituation period, an electric shock (0.8 mA, 0.5 sec) was delivered to the mouse when crossing from one plate to another. No shocks were delivered during the 3 seconds following shock administration. The number of punished crossings was recorded during a 1-min testing period. Data were expressed as the percent change in the number of punished crossings relative to control.

In data set [2] the test system is seizures induced by administration of pentylenetetrazole (PTZ). The data set is described as follows: Inhibiting PTZ induced seizures. Format: in vivo. Particulars: Mus musculus; adult mice, i.p. pretreatment 30 min before PTZ 85 mg/kg s.c., 30 minute test period; read-out: ED50, Dose Range. As to the method:
Compounds useful in this invention were also examined for their anticonvulsant activity in vivo by assessing their ability to inhibit the seizures induced by administration of pentylenetetrazole (PTZ). Adult mice were pretreated intraperitoneally with the test compound. Thirty minutes later these animals were challenged with pentylenetetrazole (85 mg/kg, s.c.) and observed for onset of seizures during a 30 minute test period.

Data set [3] deals with T1, human Kv1.1/Kvβ1 potassium ion channel complex (Homo sapiens, UniProt Q09470+Q14722).
T1 construct: expressed in transfected cells; host or cells: Xenopus oocytes injected with cRNA
T1 sequence (Q09470 whole entry): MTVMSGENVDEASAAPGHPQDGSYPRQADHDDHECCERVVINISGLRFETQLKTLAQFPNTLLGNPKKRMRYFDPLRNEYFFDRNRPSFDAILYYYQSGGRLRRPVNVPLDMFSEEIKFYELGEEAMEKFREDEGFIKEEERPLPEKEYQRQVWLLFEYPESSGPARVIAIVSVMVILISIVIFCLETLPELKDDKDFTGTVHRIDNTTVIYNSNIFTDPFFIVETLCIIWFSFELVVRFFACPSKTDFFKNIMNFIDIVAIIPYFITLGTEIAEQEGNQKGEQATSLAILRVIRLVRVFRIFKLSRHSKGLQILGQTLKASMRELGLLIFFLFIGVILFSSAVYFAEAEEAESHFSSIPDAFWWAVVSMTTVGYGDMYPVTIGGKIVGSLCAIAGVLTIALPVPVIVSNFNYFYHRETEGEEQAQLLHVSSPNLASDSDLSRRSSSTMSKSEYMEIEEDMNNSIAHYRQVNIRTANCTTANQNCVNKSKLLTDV
T1 sequence (Q14722 whole entry): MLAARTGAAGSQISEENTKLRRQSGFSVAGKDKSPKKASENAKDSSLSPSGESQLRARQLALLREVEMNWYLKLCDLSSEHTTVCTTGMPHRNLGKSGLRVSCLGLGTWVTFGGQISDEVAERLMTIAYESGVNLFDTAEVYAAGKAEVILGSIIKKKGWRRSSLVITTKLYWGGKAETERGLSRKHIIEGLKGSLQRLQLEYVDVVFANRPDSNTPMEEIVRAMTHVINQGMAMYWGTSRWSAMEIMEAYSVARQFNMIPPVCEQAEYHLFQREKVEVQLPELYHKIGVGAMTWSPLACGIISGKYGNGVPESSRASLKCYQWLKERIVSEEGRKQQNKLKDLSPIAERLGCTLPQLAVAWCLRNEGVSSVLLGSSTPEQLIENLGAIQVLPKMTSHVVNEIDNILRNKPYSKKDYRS
The data set is described as follows: Inhibiting the inactivation of Kv1.1/Kvβ1 potassium ion channel complex, voltage clamp current recordings in Xenopus oocytes. The data set is classed as cell-based. The note with it: relative to control oocytes without test compound, read-out: Percent Increase in Steady State Current (@ concentration shown in parentheses). As to the method: Compounds useful in this invention were examined for their ability to inhibit the inactivation of the human Kv1.1/Kvβ1 potassium ion channel complex in vitro using electrophysiological current recordings on inactivating Kv1.1/Kvβ1channels expressed in Xenopus oocytes. The following procedure was used.
Xenopus oocytes were harvested from frogs under general anesthesia using aseptic techniques. Oocytes were treated with 2 mg/ml collagenase for 1-1.5 hr, defolliculated, and injected with 40 nL cRNA (a mixture of hKv1.1 and hKvβ1) produced using standard molecular biological techniques (Sambrook, et al., 1989, Molecular Cloning: A Laboratory Manual). The concentration of hKv1.1/hKvβ1 cRNA varies, but was generally about 50 ng/μL hKv1.1 and […] hkβ1.
Currents were recorded using standard voltage clamp amplifiers at room temperature. Recordings were performed in the bath solution “ND-96” containing 96 mM NaCl, 2 mM KCl, 1 mm CaCl2, 1 mM MgCl2, 10 mM HEPES and […] Gentamycin (pH=7.6). The pipette (electrode) solution generally consisted of 3 mM KCl. Electrodes were made from WPI TW150F-4 borosilicate glass (or equivalent) and typically had resistances of 0.5-1.5 Mohms. The standard current—voltage (IV) pulse protocol consisted of voltage steps from −60 mV to +50 mV, in 10 mV increments for 200 ms, at a frequency of one IV set per 2 minutes. Data were digitized and analyzed by standard software packages.
Test compounds where first dissolved in DMSO to an initial concentration of 1-100 mM. Working dilutions of 1:2000 to 1:500 were made in the bath solution for final concentrations in the micromolar range. The bath solutions containing the test compounds were applied by bath perfusion using gravity or pump-driven flow. A minimum of 2 mL (10 times the bath volume) over 3 minutes were flowed for each compound concentration tested. Data were averaged across at least 3 cells tested for each concentration.
Test compounds were examined for their ability to inhibit the inactivation of the steady state portion of the IV curve.

Turning to `Cc1nnc2n1-c1ccc(Cl)cc1C(c1ccccc1)=NC2` [Alprazolam, reference compound], the “Punished crossings (% of control)” value in data set [1] (0.3 mg/kg ip., 30 min prior to testing) is 170%. Besides, the “increase in the number of punished crossings” value in data set [1] (at therapeutically relevant doses) was found to be 70%.

`CC1(C)CC(=O)C(C(=O)Nc2cccc(Cl)c2)C(=O)C1` [Example 1, N-(3-chlorophenyl)-4,4-dimethyl-2,6-dioxocyclohexanecarboxamide] registered a melting point of 89 to 91 °C. Moreover, in data set [2], the median effective dose (ED50) stood at 30 mg/kg. For the same compound, the activation at 100 µM in data set [3] is 21%.

Turning to `CC1(C)CC(=O)C(C(=O)Nc2ccc(Cl)c(Cl)c2)C(=O)C1` [Example 2, N-(3,4-dichlorophenyl)-4,4-dimethyl-2,6-dioxocyclohexanecarboxamide], the melting point lay within 124 to 129 °C. Further, the median effective dose (ED50) in data set [2] was 50 mg/kg. Besides, the activation at 100 µM in data set [3] amounted to 75%.

With `CC1(C)CC(=O)C(C(=O)Nc2cccc(C(F)(F)F)c2)C(=O)C1` [Example 8, N-(3-trifluoromethylphenyl)-4,4-dimethyl-2,6-dioxocyclohexanecarboxamide], the melting point lay in the range of 116 to 117 °C. For the same compound, the 50% effective dose (ED50) in data set [2] was determined as 32 mg/kg. Besides, the activation at 100 µM in data set [3] is 40%. Besides, the “increase in the number of punished crossings” value in data set [1] (56 mg/kg ip) was found to be 31%. In addition, in data set [1] (60 mg/kg ip., 30 min prior to testing), the “% Time Spent in Open Zones (Relative to Control)” value is given as 131%.

As to `CC1(C)CC(=O)C(C(=O)Nc2cc(C(F)(F)F)cc(C(F)(F)F)c2)C(=O)C1` [Example 9, N-[3,5-bis(trifluoromethyl)phenyl]-4,4-dimethyl-2,6-dioxocyclohexanecarboxamide], in data set [2], the 50% effective dose (ED50) was determined as 55 mg/kg. Moreover, the activation at 50 µM in data set [3] was found to be 20%.

`CC1(C)CC(=O)C(C(=O)Nc2cccc([N+](=O)[O-])c2)C(=O)O1` (stereo not shown) [Example 22, N-(3-nitrophenyl)-6,6-dimethyl-2,4-dioxotetrahydro-2H-pyran-3-carboxamide] had a melting point of 138.4 to 139.6 °C. In data set [3], the activation at 50 µM is 10%.

With `CC1(C)CC(=O)C(C(=O)Nc2ccc(Cl)c(Cl)c2)C(=O)O1` (stereo not shown) [Example 23, N-(3,4-dichlorophenyl)-6,6-dimethyl-2,4-dioxotetrahydro-2H-pyran-3-carboxamide], the melting point is 212 to 215 °C. In addition, in data set [3], the activation at 50 µM is 22%.

In turn, `CC1(C)COC(=O)C(C(=O)Nc2ccc(Cl)c(C(F)(F)F)c2)C1=O` (stereo not shown) [Example 26, N-[4-chloro-3-(trifluoromethyl)phenyl]-5,5-dimethyl-2,4-dioxotetrahydro-2H-pyran-3-carboxamide] returned a melting point of 144 to 145 °C. Further, the activation at 50 µM in data set [3] stood at 173%.

`CC1(C)CC(=O)C(C(=O)Nc2ccc(C(F)(F)F)cc2)C(=O)C1F` (stereo not shown) [Example 27, 3-Fluoro-4,4-dimethyl-2,6-dioxo-cyclohexanecarboxylic acid(4-trifluoromethyl-phenyl)-amide]: the melting point came to 129 °C. The activation at 50 µM in data set [3] turned out to be 191%.

Compound `CC1(C)CC(=O)C(C(=O)Nc2cc(F)cc(F)c2)C(=O)C1F` (stereo not shown) [Example 29, 3-Fluoro-4,4-dimethyl-2,6-dioxo-cyclohexanecarboxylic acid(3,5-difluoro-phenyl)-amide] gave a melting point of 131 to 132 °C. For the same compound, the activation at 50 µM in data set [3] is 258%.
